Experimental data published in patent US9457044B2, “Methods and compositions for wound healing” (CoDa Therapeutics, Inc., priority 2006, dated 2016).

What was measured:
[1] = system: F4/80-positive macrophages; assay: Macrophage recruitment into wound site (F4/80 immunohistochemistry); format: in vivo, mice
Procedure: (§1) Male, 8 week old, ICR mice were used in the following experiments. All the mice were kept under specific pathogen-free conditions in an environmentally controlled clean room at University College London and all the experiments were carried out under UK Home Office regulations. Mice were anaesthetized by halothane inhalation. Four full-thickness excisional wounds of 6 mm diameter were made on the shaved back on either side of the dorsal midline with a 6 mm biopsy punch (Kai Industries). To each pair of wounds a single topical application of 50 μl of 1 μM Cx43 as ODN (SEQ. ID No. 2) (Sigma-Genosys) in 30% Pluronic F-127 gel (Sigma-Aldrich), chilled on ice, was made to one wound, and an identical application of 1 μM sense control sODNs was made to the other. […] R. and Becker, D. L. (2003). Targeting connexin 43 expression accelerates the rate of wound repair. Curr Biol 13, 1697-703). Each wound region was digitally photographed at the indicated time intervals, and the areas of the wounds were calculated. All wound areas were expressed as percentages of the initial wound areas. […]
(§2) A treatment-blinded observer counted MPO-positive neutrophils and F4/80-positive macrophages in the wound bed (defined as the area surrounded by unwounded skin, fascia, regenerated epidermis, and eschar) in 3 random high-power fields of 0.332 mm^2. […]

fibroblast like cells = assay: Fibroblast-like cell count at wound margin (rhodamine phalloidin/DAPI); format: in vivo, mice; settings: 2 day wounds; P<0.01
Procedure: as §1, §2

granulation tissue = assay: Granulation tissue area (H&E); format: in vivo, mice
Procedure: as §1, with “areas. In some series of experiments, wounds and their surrounding area, including the scab and epithelial margins, were harvested with an 8 mm biopsy punch (Kai Industries) at the indicated time intervals after mice were killed with an overdose of chloroform. A minimum of eight mice were used for each time point examined.” for “areas.”

[2] = system: human limbal epithelial cells; assay: Human limbal rim-denuded pig stromal matrix chimera re-epithelialisation; format: cell-based; settings: treated at day one; controls 7 to 14 days
Procedure: Human limbal rims returned from surgery after excision of the central corneas for keratoplasty (transplant) were placed into air liquid interface organotypic culture and a denuded pig stromal extracellular matrix inserted into the central region (FIG. 14). The pig stromal matrix was denuded (cells removed) by freeze-thawing in liquid nitrogen.
The chimeras were grown for up to 2 weeks at which time the human limbal epithelial cells have re-epithelialised the pig stroma with a normal 5-7 cell layer fully differentiated epithelium. In addition, human limbal stromal keratocytes have proliferated and migrated across the limbal rim—stromal insert to repopulate the pig stromal matrix with human keratocytes.
In a further experiment the chimeras were treated with connexin 43 specific antisense ODNs at day one.

Cx43 protein = settings: within two hours; Becker 1999, McGonnell 2001, Qiu 2003; cited from earlier work
skin wounds = settings: Qiu 2003; Coutinho 2005; cited from earlier work

GTAATTGCGGCAGGAGGAATTGTTTCTGTC (antisense GTAATTGCGGCAGGAGGAATTGTTTCTGTC; in Pluronic F-127 gel, further chemistry not given here) [Cx43 asODN]
reduction of number of macrophages versus control sODN-treated wounds ([1]; day 2): 33% | reduction of number of macrophages versus control sODN-treated wounds ([1]; day 7): 32% | number of elongated fibroblast like cells at the wound margin (mean per field) (fibroblast like cells): 99.2 | granulation tissue area versus untreated tissue (granulation tissue; day 5, difference not significant): slightly smaller | granulation tissue area versus control sODN treated wounds (granulation tissue; days 7, 10 and 14 after wounding): significantly (*P<0.05; **P<0.01) smaller | time to full epithelial covering of the pig stroma [2]: ≤ 3 days | knockdown of Cx43 protein at the site of delivery (Cx43 protein): significant knockdown | healing of skin wound and burn injury sites versus control sODN (skin wounds): significantly accelerated healing
